# In paper PMC5492033, “The N-Terminal Region of the Ryanodine Receptor Affects Channel Activation” (Frontiers in Physiology, 2017):
# Read-outs that look alike come from different tables or passages of the source. No end group written: not given here.
# What was measured:
# RyR2 channel = biological target: T1, RyR2 channel (Rattus norvegicus, UniProt B0LPN4); test: Single RyR2 channel measurements in planar lipid bilayers; assay type: biochemical; conditions: for EC50: 50% of maximum increase of open probability; for Kd: PO at 0.5–2 μM peptide, cytosolic Ca2+ 100 nM, read-out: Kp, dissociation constant of DPcpvtN2; for POmax, maximum open probability: PO0 0.0039
# T1 construct: RyR2 channels were incorporated from a suspension of microsomal vesicles of the SR; from tissue; host or cells: rat (Wistar Han) heart ventricles, cardiac SR microsomes
# Description: All experimental protocols were approved by the State veterinary and food administration of the Slovak Republic (Ro-3820/05-221, Ro-2821/09-221) and by the ethical committee of the Centre of Biosciences. All methods were carried out in accordance with the European directive 2010/63/EU. Male rats (Wistar Han, 240–310 g, breeding station Dobra Voda, reg. No. SK CH 24011, Slovak Republic) were anesthetized with sodium pentobarbital (50 mg kg^−1 i.p.), the hearts were excised, and cardiac SR microsomes were isolated from rat heart ventricles by differential centrifugation without further purification steps, as previously described (Gaburjakova and Gaburjakova, [2006]; Faltinova and Zahradnikova, [2013]), snap frozen in liquid nitrogen and stored at −70°C.
# Preparation of bilayers, incorporation of channels and electrophysiological measurements were performed as previously described (Faltinova and Zahradnikova, [2013]). In brief, bilayer lipid membranes were formed over a 20–50 μm aperture in a polystyrene chamber. The aperture was first treated with a solution (26 mg/ml) of DOPS, DOPC and DPPC (3:5:5) in N-decane (Aldrich, USA). After evaporation of N-decane, the cis and trans compartments of the bilayer chamber were filled with the solutions (in mmol/l): cis, 250 HEPES, 50 KCl, 1 EGTA, 125 TRIS, 0.5 CaCl2, pH 7.35, [Ca^2+] = 90 nM; trans, 30 HEPES, 50 KCl, 1 Ca(OH)2, 7 Ba(OH)2, pH 7.35, and the bilayer was formed using a mixture of DOPS and DOPE (3:10; 26 mg/ml in N-decane). After formation of a bilayer, RyR2 channels were incorporated from a suspension of microsomal vesicles of the SR, added to the cis compartment. RyR identity was checked at the beginning of the experiment at high Ca^2+, when it was characteristic by its single-channel amplitude and open duration (Tencerova et al., [2012]; Faltinova and Zahradnikova, [2013]). Under the above ionic conditions, no other channels have similar properties. Detection of RyR channel was followed by perfusion to a basal Ca^2+ level. The identity of RyR was occasionally further tested at the end of the experiment by addition of 100 μM Ca^2+.
# Currents through the incorporated single RyR2 channels were measured in voltage-clamp mode at 0 mV with MultiClamp 700B amplifier (Molecular Devices, USA) with a 50 GΩ feed-back resistor. The signal was filtered by a 4-pole Bessel filter at 1 kHz and digitized using an A/D converter (Digidata 1440A, Molecular Devices, USA) at a frequency of 4 kHz. Acquisition and analysis were performed using pClamp software (Ver. 10, Molecular Devices, USA) and Origin Pro (Ver. 9, OriginLab Corporation, USA).
# Equilibrium open probabilities for different gating models (Equations 1–3) were determined from the gating schemes. Equations were derived using Mathematica (Ver. 10, Wolfram Research, USA) as previously described (Zahradnik et al., [2005]). The value of EC50 was calculated in Mathematica from Equations (1) to (3) as the ligand concentration, at which the increase of open probability reached 50% of maximum increase.
# RyR2 = tested on: RyR2; design: method as in 2 sources, one per row (each row's own in cited_ref): ref Zahradnikova and Zahradnik, 1993 ||| ref Faltinova and Zahradnikova, 2013; conditions: ref Zahradnikova and Zahradnik, 1993; cited from earlier work
# [1] = CD spectroscopy (secondary structure); assay type: physicochemical
# Description: Circular dichroism (CD) measurements were performed using a Jasco J-810 spectropolarimeter (Japan). CD measurements were performed in the 198–250 nm wavelength range, which enabled estimation of the secondary structure of the peptide. The DPcpvtN2 peptide was dissolved either in 2 mM Na-phosphate (pH 7.0) or in 99.8% ethanol to a final concentration of 1.5–7 μM. CD spectra were expressed as averages of 3–5 consecutive scans. 1 mm cuvette was used for measurements. Typically, a time constant of 2 s, bandwidth of 2.0 nm, scanning speed 200 nm/min and the standard sensitivity were used. The spectra were analyzed using the web server CAPITO (Wiedemann et al., [2013]), which provides the percentage of α-helical, β-sheet and random coil in the secondary structure.
# T1 sequence (B0LPN4 whole entry): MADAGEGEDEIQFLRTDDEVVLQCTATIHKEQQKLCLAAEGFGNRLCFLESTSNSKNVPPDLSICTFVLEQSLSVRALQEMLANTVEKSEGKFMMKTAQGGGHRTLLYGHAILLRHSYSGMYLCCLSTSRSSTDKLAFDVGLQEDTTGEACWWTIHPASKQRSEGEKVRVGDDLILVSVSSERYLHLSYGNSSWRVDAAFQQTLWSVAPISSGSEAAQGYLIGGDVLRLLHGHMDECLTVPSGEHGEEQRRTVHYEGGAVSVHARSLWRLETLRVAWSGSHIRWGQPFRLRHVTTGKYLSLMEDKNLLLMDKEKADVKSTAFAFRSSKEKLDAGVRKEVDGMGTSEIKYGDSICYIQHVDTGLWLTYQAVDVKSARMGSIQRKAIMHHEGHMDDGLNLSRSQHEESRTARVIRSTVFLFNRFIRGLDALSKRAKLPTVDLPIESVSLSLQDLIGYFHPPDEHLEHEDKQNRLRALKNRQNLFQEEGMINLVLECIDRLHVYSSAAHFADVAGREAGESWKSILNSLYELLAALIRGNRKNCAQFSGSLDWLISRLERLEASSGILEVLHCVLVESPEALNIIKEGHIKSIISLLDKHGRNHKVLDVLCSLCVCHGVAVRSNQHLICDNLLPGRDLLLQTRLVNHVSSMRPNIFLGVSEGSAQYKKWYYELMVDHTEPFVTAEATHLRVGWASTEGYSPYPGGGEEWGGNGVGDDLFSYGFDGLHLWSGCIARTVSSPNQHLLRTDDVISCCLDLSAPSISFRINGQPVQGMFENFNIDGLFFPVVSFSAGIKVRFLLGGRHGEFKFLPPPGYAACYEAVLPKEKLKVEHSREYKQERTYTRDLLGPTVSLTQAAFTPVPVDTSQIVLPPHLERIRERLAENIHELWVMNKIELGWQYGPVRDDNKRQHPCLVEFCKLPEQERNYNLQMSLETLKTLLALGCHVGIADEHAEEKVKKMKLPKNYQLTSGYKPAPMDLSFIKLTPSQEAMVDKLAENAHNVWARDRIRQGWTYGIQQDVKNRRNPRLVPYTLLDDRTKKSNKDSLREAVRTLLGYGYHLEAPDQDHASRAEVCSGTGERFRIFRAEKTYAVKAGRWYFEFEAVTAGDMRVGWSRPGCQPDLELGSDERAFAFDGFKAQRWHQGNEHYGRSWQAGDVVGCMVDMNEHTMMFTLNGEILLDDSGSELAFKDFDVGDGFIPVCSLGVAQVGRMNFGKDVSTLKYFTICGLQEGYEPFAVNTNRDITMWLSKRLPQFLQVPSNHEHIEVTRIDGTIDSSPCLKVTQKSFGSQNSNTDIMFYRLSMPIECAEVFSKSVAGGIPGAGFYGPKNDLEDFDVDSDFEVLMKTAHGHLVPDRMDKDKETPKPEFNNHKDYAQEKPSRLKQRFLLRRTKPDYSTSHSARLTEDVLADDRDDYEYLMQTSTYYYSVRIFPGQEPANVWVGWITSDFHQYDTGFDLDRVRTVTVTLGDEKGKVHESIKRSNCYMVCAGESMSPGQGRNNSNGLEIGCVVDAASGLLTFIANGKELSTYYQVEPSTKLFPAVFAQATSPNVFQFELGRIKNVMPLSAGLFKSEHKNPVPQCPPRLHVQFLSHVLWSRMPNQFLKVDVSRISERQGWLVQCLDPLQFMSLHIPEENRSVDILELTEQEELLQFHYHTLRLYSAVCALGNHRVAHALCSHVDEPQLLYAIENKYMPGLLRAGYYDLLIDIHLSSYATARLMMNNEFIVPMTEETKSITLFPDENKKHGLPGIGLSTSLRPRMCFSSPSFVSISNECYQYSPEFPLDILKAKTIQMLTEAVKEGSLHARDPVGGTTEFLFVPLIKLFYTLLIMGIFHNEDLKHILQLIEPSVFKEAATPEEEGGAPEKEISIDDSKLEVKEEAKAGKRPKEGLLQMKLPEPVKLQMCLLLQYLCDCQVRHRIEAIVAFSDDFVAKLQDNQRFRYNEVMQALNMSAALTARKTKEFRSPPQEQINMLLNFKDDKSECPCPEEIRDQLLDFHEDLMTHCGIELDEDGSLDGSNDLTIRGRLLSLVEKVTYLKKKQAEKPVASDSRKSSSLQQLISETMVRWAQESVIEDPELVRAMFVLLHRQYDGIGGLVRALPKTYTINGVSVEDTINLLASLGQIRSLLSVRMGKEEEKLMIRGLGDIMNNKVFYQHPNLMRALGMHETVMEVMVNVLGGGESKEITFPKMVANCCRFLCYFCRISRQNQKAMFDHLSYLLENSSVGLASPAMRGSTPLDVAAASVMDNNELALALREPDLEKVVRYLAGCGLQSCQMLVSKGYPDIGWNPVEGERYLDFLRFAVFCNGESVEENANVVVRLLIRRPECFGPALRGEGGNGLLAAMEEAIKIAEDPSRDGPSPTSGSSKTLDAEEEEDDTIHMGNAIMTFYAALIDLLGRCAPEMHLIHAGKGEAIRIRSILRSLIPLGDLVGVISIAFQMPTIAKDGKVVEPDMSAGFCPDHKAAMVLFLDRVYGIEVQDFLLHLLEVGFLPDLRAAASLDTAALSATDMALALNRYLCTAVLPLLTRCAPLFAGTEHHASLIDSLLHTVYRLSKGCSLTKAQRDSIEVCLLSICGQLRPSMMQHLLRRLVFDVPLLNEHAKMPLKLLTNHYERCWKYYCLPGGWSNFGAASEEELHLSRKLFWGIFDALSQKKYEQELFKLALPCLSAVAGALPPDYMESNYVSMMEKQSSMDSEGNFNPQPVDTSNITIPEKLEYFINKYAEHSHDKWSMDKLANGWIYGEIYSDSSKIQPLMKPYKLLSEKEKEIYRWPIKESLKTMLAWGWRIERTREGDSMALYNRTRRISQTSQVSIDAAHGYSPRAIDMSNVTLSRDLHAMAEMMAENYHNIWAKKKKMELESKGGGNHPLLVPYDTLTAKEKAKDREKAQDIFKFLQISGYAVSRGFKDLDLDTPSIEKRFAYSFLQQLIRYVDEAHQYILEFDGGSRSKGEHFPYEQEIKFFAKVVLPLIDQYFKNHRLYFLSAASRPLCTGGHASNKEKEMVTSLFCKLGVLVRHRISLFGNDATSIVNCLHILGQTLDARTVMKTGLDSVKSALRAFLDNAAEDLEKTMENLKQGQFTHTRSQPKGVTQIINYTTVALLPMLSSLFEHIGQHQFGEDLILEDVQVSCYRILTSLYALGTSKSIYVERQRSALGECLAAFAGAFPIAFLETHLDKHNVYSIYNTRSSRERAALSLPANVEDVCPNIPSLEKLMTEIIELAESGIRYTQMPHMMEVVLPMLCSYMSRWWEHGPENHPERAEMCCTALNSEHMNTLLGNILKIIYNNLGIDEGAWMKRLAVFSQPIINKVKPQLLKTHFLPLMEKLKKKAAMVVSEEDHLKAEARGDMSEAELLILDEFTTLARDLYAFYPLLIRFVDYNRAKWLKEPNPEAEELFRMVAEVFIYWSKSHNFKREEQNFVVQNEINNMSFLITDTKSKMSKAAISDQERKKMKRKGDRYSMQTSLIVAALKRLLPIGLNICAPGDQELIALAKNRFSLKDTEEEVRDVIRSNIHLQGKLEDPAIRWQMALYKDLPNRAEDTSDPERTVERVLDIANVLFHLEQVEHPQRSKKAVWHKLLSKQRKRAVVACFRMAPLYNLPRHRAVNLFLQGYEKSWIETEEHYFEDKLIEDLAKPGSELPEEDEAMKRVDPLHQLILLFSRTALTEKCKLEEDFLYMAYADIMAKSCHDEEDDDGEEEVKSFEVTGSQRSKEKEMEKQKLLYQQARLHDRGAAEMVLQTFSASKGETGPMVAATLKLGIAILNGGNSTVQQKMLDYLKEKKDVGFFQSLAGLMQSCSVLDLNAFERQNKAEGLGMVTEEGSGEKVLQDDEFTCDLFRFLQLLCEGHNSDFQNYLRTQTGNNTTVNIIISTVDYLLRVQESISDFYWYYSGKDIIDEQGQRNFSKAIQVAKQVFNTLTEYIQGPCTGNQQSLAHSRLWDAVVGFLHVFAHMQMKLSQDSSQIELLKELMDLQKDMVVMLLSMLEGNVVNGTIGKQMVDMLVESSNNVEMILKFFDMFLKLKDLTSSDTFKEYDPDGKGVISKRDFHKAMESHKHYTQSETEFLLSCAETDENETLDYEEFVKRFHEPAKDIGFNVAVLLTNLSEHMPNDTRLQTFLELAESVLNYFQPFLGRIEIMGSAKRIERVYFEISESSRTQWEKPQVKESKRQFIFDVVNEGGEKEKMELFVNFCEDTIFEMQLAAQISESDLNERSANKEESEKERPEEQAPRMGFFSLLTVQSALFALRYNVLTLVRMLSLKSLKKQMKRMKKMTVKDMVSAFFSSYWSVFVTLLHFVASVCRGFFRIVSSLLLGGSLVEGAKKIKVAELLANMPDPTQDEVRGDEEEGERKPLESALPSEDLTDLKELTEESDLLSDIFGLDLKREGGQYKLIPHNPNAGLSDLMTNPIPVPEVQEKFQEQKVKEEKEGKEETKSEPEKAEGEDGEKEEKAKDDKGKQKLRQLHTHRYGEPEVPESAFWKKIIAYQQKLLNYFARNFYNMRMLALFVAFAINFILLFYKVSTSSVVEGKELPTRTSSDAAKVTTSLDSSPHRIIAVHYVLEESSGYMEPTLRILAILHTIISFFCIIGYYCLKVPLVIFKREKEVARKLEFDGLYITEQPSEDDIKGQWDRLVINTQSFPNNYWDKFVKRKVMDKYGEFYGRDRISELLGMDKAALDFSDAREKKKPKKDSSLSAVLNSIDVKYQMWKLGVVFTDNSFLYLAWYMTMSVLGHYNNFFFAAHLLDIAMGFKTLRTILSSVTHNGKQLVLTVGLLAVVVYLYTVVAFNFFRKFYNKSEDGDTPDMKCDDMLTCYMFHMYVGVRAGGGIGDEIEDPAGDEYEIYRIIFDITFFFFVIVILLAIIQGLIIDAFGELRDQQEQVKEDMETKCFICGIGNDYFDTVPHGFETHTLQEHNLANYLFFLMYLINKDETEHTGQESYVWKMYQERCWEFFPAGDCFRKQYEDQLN
molecule,measurement,setting,value
"HEESRTARVIRSTVFLFBRFIRGLDALSK (HEESRTARVIRSTVFLFXRFIRGLDALSK; not fully specified) [DPcpvtN2, domain peptide containing amino acids 410–438 of human RyR2, the central helix of the N-terminal region]",EC50,"RyR2 channel; calculated from Equation (1), gating scheme GS1",66.4 µM
same,EC50,"RyR2 channel; calculated from Equation (2), gating scheme GS2",17.6 µM
same,EC50,"RyR2 channel; calculated from Equation (3), gating scheme GS3",0.41 µM
same,Kd,"RyR2 channel; fit by gating scheme GS1 (Equation 1: one peptide bound opens channel), 0 mV, n = 9 channels",351 ± 99 µM
same,Kd,"RyR2 channel; fit by gating scheme GS2 (Equation 2: four peptides bound open channel; fit rejected), 0 mV, n = 9 channels",3.35 ± 0.56 µM
O=S(=O)(O)c1cc(N=C=S)ccc1C=Cc1ccc(N=C=S)cc1S(=O)(=O)O [DIDS],Effect on RyR2 activity,RyR2,all-or-none
"HEESRTARVIRSTVFLFBRFIRGLDALSK [DPcpvtN2, domain peptide containing amino acids 410–438 of human RyR2, the central helix of the N-terminal region]",Effect on RyR2 open probability,"RyR2 channel; 0.5–2 μM, cis side, diastolic conditions (100 nM cytosolic Ca2+, 1 mM luminal Ca2+, 0 mV), 2-min recording, n = 9 channels",Increase in open probability and the presence of long openings could be observed at all DPcpvtN2 concentrations
same,Time to occurrence of long openings after addition,"RyR2 channel; 0.5–2 μM, diastolic conditions, 0 mV",≤ 1 min
same,Open time (tO) of long openings,"RyR2 channel; 0.5–2 μM, diastolic conditions, 0 mV, control openings tO ~ 15 ms",> 100 ms
same,"fp, allosteric factor","RyR2 channel; fit by gating scheme GS3 (Equation 3), couples DPcpvtN2 binding to channel opening",0.61 ± 0.10
same,"POmax, maximum open probability",RyR2 channel; gating scheme GS1,1
same,"POmax, maximum open probability",RyR2 channel; gating scheme GS2,1
same,"POmax, maximum open probability",RyR2 channel; gating scheme GS3,0.0275
same,Reversibility of the interaction between channel and peptide,RyR2 channel; inferred from concentration dependence of RyR open probability,readily reversible
same,Ellipticity in ethanol compared with aqueous solution,"[1]; 1.5–3 μM, ethanol vs. phosphate buffer pH 7.0",an order of magnitude higher
same,Content of α-helix,"[1]; CD spectra, 1.5–3 μM in phosphate buffer pH 7.0 or ethanol (solvent of the estimate not specified), CAPITO web server",99%
